Experimental data as given in ChEMBL document CHEMBL5537122, “Design, synthesis, and biological evaluation of 4-(2-fluorophenoxy)-7-methoxyquinazoline derivatives as dual EGFR/c-Met inhibitors for the treatment of NSCLC” (Eur J Med Chem, 2024).
The source made the active and inactive calls. The rule behind the calls is not given here.

What was measured:
A549 [1] = test: Antitumor activity against human A549 cells overexpressing c-MET xenografted in BALB/c nude mouse assessed as tumor growth inhibition at 60 mg/kg, IG qod measured for 24 days relative to control; format: functional; details: A549, po, 576 h, time 24 day, read-out: TGI
[2] = biological target: Proto-oncogene tyrosine-protein kinase receptor Ret (Homo sapiens) (UniProt P07949); test: Inhibition of RET (unknown origin) at 10 uM
[3] = biological target: Macrophage-stimulating protein receptor (Homo sapiens) (UniProt Q04912); test: Inhibition of RON (unknown origin) at 10 uM
NCI-H1975 [4] = test: Induction in apoptosis in human NCI-H1975 cells assessed as late apoptotic cells at 2.5 uM incubated for 24 hrs by Annexin V-FITC/Propidium Iodide staining based flow cytometry analysis (reference value: 4.46 %); format: functional
A549 [5] = test: Induction of cell cycle arrest in human A549 cells overexpressing c-MET assessed as accumulation of cells at G2/M phase at 1 uM incubated for 24 hrs by RNase A/propidium iodide staining based flow cytometric analysis (reference value: 12.41 %); format: functional
[6] = Induction in apoptosis in human L02 cells assessed as viable cells at 1 uM incubated for 24 hrs by Annexin V-FITC/Propidium Iodide staining based flow cytometry analysis (reference value: 92.75 %); format: toxicity, cell-based; details: read-out: Activity
[7] = Cardiotoxicity in KM mouse assessed as effect on lactate dehydrogenase level at 100 mg/kg, IG qd administered for 7 days by automatic biochemical analyzer; format: toxicity, organism-based; details: in vivo, po, 168 h, time 7 day
[8] = Acute toxicity in KM mouse assessed as cell damage or necrosis in heart at 100 mg/kg, IG qa administered for 7 days and measured on day 8 by hematoxylin and eosin staining based assay; format: organism-based; details: in vivo, po, 192 h, time 8 day
A549 [9] = test: Downregulation of phosphorylated EGFR protein expression level human A549 cells overexpressing c-MET incubated for 24 hrs by Western blotting analysis; format: functional, cell-based; details: dose 1-10 µM
NCI-H1975 [10] = test: Inhibition of colony formation in human NCI-H1975 cells at 1 uM preincubated for 48 hrs followed by media replacement for every 2 days for 14 days by crystal violet staining based microscopic analysis relative to control; format: functional
[11] = biological target: Proto-oncogene tyrosine-protein kinase ROS (Homo sapiens) (UniProt P08922); test: Inhibition of ROS (unknown origin) at 10 uM
NCI-H1975 [12] = test: Induction in apoptosis in human NCI-H1975 cells assessed as late apoptotic cells at 1 uM incubated for 24 hrs by Annexin V-FITC/Propidium Iodide staining based flow cytometry analysis (reference value: 4.46 %); format: functional
A549 [13] = test: Inhibition of colony formation in human A549 cells overexpressing c-MET preincubated for 48 hrs followed by media replacement for every 2 days for 14 days by crystal violet staining based microscopic analysis; format: functional, cell-based; details: dose 0.25-2 µM
[14] = Acute toxicity in KM mouse assessed as cell damage or necrosis in lung at 100 mg/kg, IG qa administered for 7 days and measured on day 8 by hematoxylin and eosin staining based assay; format: organism-based; details: in vivo, po, 192 h, time 8 day
NCI-H1975 [15] = test: Induction in apoptosis in human NCI-H1975 cells assessed as early apoptotic cells at 1 uM incubated for 24 hrs by Annexin V-FITC/Propidium Iodide staining based flow cytometry analysis (reference value: 2.54 %); format: functional
A549 [16] = test: Induction of apoptosis in human A549 cells overexpressing c-MET assessed as reduction in red fluorescence intensity incubated for 24 hrs by JC-1 staining based fluorescence inverted microscopic analysis; format: functional, cell-based; details: dose 1-2.5 µM
L02 [17] = test: Induction in apoptosis in human L02 cells assessed as necrotic cells at 2.5 uM incubated for 24 hrs by Annexin V-FITC/Propidium Iodide staining based flow cytometry analysis (reference value: 6.63 %); format: toxicity, cell-based; details: l02, 24 h
A549 [18] = test: Induction in apoptosis in human A549 cells overexpressing c-MET assessed as necrotic cells at 1 uM incubated for 24 hrs by Annexin V-FITC/Propidium Iodide staining based flow cytometry analysis (reference value: 3.22 %); format: functional
A549 [19] = test: Inhibition of colony formation in human A549 cells overexpressing c-MET at 1 uM preincubated for 48 hrs followed by media replacement for every 2 days for 14 days by crystal violet staining based microscopic analysis relative to control; format: functional
[20] = Cardiotoxicity in KM mouse assessed as effect on creatine kinase level at 100 mg/kg, IG qd administered for 7 days by automatic biochemical analyzer; format: toxicity, organism-based; details: in vivo, po, 168 h, time 7 day
L02 [21] = test: Induction in apoptosis in human L02 cells assessed as late apoptotic cells at 2.5 uM incubated for 24 hrs by Annexin V-FITC/Propidium Iodide staining based flow cytometry analysis (reference value: 0.36 %); format: toxicity, cell-based; details: l02, 24 h
A549 [22] = test: Induction of cell cycle arrest in human A549 cells overexpressing c-MET assessed as accumulation of cells at S phase at 1 uM incubated for 24 hrs by RNase A/propidium iodide staining based flow cytometric analysis (reference value: 37.87 %); format: functional

Proto-oncogene tyrosine-protein kinase ROS (Homo sapiens), sequence (P08922 whole entry): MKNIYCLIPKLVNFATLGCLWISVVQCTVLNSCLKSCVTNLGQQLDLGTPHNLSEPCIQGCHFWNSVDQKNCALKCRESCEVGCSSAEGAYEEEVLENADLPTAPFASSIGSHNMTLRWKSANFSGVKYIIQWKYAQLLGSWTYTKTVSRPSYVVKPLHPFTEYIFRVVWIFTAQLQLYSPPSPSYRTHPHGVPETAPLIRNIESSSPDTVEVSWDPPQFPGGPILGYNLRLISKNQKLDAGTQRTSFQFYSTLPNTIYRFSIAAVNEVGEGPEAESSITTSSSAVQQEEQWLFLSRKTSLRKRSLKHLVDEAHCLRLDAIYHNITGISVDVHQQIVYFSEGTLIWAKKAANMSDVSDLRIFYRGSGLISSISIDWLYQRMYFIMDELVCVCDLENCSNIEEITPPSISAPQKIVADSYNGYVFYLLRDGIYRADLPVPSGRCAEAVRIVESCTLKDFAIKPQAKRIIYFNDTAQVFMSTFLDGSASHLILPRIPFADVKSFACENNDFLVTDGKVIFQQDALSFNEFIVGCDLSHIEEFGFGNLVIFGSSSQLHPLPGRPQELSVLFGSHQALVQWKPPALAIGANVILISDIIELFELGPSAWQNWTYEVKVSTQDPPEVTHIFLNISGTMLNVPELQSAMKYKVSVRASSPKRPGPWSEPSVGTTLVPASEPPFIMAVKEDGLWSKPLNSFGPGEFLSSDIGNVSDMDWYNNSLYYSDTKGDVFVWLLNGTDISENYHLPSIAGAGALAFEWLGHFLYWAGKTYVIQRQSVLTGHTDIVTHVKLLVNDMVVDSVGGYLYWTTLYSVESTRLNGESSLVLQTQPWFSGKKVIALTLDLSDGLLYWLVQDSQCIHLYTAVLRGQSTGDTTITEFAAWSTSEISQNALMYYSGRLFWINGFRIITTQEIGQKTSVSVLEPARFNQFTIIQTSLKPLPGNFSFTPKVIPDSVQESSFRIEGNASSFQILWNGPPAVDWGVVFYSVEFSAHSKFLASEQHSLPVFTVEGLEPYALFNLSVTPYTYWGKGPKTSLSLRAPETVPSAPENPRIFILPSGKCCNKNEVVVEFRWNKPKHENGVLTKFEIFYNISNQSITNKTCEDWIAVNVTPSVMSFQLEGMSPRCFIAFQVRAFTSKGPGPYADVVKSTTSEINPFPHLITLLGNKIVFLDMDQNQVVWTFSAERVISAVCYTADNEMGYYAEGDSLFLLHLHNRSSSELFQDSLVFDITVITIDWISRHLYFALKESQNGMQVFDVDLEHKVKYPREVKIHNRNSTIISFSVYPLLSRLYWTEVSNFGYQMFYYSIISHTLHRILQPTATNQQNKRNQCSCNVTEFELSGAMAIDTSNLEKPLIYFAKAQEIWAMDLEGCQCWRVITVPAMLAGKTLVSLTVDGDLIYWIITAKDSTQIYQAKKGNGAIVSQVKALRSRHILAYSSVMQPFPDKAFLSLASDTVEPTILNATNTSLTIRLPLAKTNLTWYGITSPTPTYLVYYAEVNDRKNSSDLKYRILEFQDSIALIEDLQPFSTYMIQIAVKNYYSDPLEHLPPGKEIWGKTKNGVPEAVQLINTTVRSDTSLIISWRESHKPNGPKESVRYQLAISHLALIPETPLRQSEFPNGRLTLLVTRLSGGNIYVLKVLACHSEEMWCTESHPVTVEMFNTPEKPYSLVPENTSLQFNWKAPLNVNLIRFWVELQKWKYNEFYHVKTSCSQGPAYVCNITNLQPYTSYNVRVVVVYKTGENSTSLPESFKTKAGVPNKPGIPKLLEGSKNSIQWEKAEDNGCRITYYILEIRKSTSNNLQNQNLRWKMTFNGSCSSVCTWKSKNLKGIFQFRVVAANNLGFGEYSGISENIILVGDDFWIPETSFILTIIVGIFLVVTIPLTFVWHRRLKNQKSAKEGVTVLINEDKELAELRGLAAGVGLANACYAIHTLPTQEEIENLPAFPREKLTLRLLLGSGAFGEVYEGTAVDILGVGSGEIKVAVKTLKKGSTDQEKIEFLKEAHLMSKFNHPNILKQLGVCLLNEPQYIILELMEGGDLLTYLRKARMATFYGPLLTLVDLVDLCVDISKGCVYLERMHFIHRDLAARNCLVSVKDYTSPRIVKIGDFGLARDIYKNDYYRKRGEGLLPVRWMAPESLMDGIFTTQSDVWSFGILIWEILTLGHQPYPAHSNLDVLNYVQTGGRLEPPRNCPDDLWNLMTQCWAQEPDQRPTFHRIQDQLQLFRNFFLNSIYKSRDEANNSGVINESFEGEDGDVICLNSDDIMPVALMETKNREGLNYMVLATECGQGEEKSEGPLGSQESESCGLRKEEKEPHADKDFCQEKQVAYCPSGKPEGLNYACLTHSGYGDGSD
Macrophage-stimulating protein receptor (Homo sapiens), sequence (Q04912 25-304 limits assumed): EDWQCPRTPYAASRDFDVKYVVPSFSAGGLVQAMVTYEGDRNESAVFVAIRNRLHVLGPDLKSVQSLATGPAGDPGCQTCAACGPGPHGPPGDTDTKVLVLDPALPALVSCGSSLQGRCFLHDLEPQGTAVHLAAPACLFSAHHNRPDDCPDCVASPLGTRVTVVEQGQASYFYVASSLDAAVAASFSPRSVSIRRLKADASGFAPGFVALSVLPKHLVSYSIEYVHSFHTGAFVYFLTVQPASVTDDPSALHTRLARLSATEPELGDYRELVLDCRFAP
Macrophage-stimulating protein receptor (Homo sapiens), sequence (Q04912 310-1400 limits assumed): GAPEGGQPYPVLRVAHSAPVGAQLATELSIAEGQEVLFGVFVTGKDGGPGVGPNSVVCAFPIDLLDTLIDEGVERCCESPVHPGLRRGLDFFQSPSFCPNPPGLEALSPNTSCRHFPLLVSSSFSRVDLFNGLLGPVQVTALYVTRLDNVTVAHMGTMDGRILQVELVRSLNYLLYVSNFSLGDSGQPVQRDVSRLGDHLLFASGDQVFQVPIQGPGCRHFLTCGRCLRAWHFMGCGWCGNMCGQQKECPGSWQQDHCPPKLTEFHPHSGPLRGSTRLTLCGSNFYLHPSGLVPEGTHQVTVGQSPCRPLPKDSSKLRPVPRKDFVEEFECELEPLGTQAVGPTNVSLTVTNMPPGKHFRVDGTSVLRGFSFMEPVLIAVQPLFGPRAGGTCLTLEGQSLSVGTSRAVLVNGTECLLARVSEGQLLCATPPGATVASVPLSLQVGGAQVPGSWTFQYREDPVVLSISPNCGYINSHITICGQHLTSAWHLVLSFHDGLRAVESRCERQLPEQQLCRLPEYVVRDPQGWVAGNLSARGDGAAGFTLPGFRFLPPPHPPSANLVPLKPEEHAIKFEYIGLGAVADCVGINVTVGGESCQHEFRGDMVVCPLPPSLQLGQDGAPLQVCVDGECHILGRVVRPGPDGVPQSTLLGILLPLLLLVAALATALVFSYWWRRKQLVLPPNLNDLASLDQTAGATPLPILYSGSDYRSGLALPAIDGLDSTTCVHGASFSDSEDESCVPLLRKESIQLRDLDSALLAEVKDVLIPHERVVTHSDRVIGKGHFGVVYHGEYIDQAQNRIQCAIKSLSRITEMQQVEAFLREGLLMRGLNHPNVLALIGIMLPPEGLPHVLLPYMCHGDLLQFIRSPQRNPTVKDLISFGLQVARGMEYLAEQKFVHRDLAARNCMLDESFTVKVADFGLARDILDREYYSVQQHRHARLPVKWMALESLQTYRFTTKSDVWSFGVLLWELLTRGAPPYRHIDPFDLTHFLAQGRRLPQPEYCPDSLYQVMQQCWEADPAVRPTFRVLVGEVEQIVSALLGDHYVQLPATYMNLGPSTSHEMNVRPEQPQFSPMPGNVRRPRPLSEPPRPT
Proto-oncogene tyrosine-protein kinase receptor Ret (Homo sapiens), sequence (P07949 whole entry): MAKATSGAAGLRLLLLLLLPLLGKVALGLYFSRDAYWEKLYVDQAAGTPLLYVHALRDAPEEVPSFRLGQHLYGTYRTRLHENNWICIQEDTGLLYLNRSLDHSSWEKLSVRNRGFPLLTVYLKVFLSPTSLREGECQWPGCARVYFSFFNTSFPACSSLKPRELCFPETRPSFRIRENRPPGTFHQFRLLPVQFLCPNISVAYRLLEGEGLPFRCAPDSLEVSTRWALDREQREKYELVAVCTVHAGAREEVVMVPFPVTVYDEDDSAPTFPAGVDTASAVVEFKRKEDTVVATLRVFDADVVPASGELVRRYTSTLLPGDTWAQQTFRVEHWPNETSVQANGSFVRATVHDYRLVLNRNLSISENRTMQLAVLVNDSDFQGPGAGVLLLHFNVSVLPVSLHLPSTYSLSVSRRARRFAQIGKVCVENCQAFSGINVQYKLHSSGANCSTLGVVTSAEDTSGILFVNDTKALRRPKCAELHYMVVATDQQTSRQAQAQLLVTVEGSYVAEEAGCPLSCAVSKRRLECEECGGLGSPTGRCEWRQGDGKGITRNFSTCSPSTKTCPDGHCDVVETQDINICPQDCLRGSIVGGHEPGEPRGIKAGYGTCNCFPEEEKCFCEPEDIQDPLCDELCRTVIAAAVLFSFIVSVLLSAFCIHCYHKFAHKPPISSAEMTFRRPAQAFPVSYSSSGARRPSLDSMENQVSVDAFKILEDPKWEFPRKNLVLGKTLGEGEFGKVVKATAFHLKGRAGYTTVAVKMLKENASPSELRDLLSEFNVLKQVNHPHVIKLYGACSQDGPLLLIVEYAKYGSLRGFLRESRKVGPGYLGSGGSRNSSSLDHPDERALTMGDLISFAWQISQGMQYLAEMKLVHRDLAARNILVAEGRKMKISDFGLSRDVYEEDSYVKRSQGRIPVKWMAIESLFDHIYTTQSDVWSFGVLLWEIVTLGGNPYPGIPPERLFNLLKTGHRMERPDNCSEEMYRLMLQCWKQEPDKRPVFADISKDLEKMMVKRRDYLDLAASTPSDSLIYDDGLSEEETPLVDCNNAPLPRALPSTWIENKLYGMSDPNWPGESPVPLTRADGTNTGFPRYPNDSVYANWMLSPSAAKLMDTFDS

Q: With C=CC(=O)Nc1cc2c(Oc3ccc(NC(=O)n4c(=O)c(-c5ccccc5)c(C)n4C)cc3F)cccc2cc1OC as the molecule, how does the inhibition in vivo at 60 mg/kg (A549 [1]) read?
A: Its inhibition in vivo at 60 mg/kg is 55.3%.

Q: What about the inhibition [2] of the same molecule?
A: Its inhibition is “inactive”.

Q: What about the inhibition [3] of the same molecule?
A: The inhibition was “Active”.

Q: What about the Activity (NCI-H1975 [4]) of the same molecule?
A: The Activity was 8.17%.

Q: What about the Activity (A549 [5]) of the same molecule?
A: Its Activity is 11.29%.

Q: What about the viability at 24 h, 1 µM [6] of the same molecule?
A: The viability at 24 h, 1 µM was 91.9%.

Q: And the Activity [7]?
A: Its Activity is “Non-Toxic”.

Q: And the Activity [8]?
A: Its Activity is “Non-Toxic”.

Q: And the Activity (A549 [9])?
A: The Activity was “Dose-Dependent Effect”.

Q: And the inhibition at 1 µM (NCI-H1975 [10])?
A: Its inhibition at 1 µM is roughly 50%.

Q: And the inhibition [11]?
A: The inhibition was “Active”.

Q: What about the Activity (NCI-H1975 [12]) of the same molecule?
A: Its Activity is 7.27%.

Q: What about the inhibition (A549 [13]) of the same molecule?
A: Its inhibition is “Dose-Dependent Effect”.

Q: What about the Activity [14] of the same molecule?
A: The Activity was “Non-Toxic”.

Q: What about the Activity (NCI-H1975 [15]) of the same molecule?
A: Its Activity is 2.77%.

Q: And the Activity (A549 [16])?
A: The Activity was “Dose-Dependent Effect”.

Q: And the Activity (L02 [17])?
A: The Activity was 4.53%.

Q: And the Activity (A549 [18])?
A: Its Activity is 6.61%.

Q: And the inhibition at 1 µM (A549 [19])?
A: The inhibition at 1 µM was roughly 50%.

Q: And the Activity [20]?
A: Its Activity is “Non-Toxic”.

Q: What about the Activity (L02 [21]) of the same molecule?
A: The Activity was 0.34%.

Q: What about the Activity (A549 [22]) of the same molecule?
A: The Activity was 35.49%.
